Measurements taken from patent US9416144B2, “Benzoxazine oxazolidinone compound, preparation method and application thereof” (priority 2012, dated 2016).
≈ marks a conversion by molar mass, not a printed value. Where “and” joins values, the source holds several entries; their conditions need not be identical. Equal entries are not always repeated. Where two headings read alike, the source gives them in different places. Blank lines part the entries; values can stand above or below the molecule they belong to.

Columns and labels:
[1] = test system: Streptococcus pneumoniae resistant strains (4 strains); assay: In vitro antibacterial activity, MIC by agar double dilution method; assay type: cell-based; conditions: clinical isolates
Description: (§1) Experimental method: The agar double dilution method (Antimicrob. Agents and Chemother, 40, 1996, 720-726) was used to determine the minimum inhibitory concentration (MIC) of the series of compounds of the invention and the positive control drug linezolid for the test strains. The multipoint inoculation system (Denley A400) was employed to inoculate the bacteria on the agar plate surface with different concentrations of drugs; inoculation amount on each point was about 10^6 CFU/mL. The plates were incubated at 35° C. for 16 hrs before the results were observed. The lowest drug concentration contained in the Petri dish without bacterial growth was used as the minimum inhibitory concentration (MIC value) of the drug fir that strain.
(§2) Test strains: All the test strains were clinically isolated pathogens which were collected from the Nanjing region, and they were re-identified by routine methods before use. 31 strains of the clinically isolated pathogens were chosen, including 6 strains of Enterococcus, 5 Staphylococcus aureus sensitive strains; 5 Staphylococcus epidermidis sensitive strains; 6 Staphylococcus aureus resistant strains; 5 Staphylococcus epidermidis resistant strains; and 4 Streptococcus pneumoniae resistant strains.
(§3) Compounds to be tested were first added 2 ml of DMSO to help them fully dissolved, then added sterile double distilled water to the desired concentration; to all the Petri dish with added drug liquid were added 20 mL MIT medium which was heat-melted to be liquid-like, to make the final drug concentration in the Petri dish to be 64, 32, 16, 8, 4, 2, 1, 0.5, 0.25, 0.125, 0.0625, and 0.031 μg/mL.
(§4) The positive control group was LZ (linezolid, brand name Zyvox, approved by the FDA in 2000 to be firstly sold in the United States, which is the first and also the only one of oxazolidinone antibacterial drugs allowed to enter clinical application).

[2] = test system: Staphylococcus epidermidis resistant strains (5 strains); assay: as above; assay type: cell-based; conditions: clinical isolates
Description: as §1, §2, §3, §4

[3] = test system: Staphylococcus epidermidis sensitive strains (5 strains); assay: as above; assay type: cell-based; conditions: clinical isolates
Description: as §1, §2, §3, §4

[4] = test system: Staphylococcus aureus sensitive strains (5 strains); assay: as above; assay type: cell-based; conditions: clinical isolates
Description: as §1, §2, §3, §4

[5] = test system: Staphylococcus aureus resistant strains (6 strains); assay: as above; assay type: cell-based; conditions: clinical isolates
Description: as §1, §2, §3, §4

[6] = test system: Enterococcus (6 strains); assay: as above; assay type: cell-based; conditions: clinical isolates, 35° C. 16 hrs
Description: as §1, §2, §3, §4

[7] = In vivo pharmacokinetic assays in rats (intragastric and intravenous), plasma Compound 14 by LC-MS/MS; design: species or system SD rats
Procedure: Two routes of administration (intragastric administration and intravenous injection) were employed.
(§5) Intragastric administration: Four healthy SD rats, male, weight 200-250 g, were dosed 15 mg/kg; the delivery volume was 10 ml/kg, prepared with 0.5% CMC-Na. The rats were fasted for 12 hrs before administration, free water-drinking. 0.3 ml of venous blood was taken from the posterior venous plexus of rats to heparinized tubes at 0.25, 0.5, 1.0, 2.0, 3.0, 4.0, 5.0, 7.0, 9.0, 24, and 48 hrs after administration, centrifuged at 3500 rpm for 10 mins to separate the plasma, which was then stored at −20° C. for test.
as §5, with “Intravenous injection: Two” for “Intragastric administration: Four”, “200˜250” for “200-250”, “5” for “15”, “DMSO, Tween 80 and deionized water.” for “0.5% CMC-Na.”, “5 min, 15 min, and” for “0.25,”
The concentration of Compound 14 in plasma was determined by liquid chromatography tandem mass spectrometry.
In accordance with the above experimental methods, the inventor has determined the in vivo pharmacokinetic properties of phosphate (ester) disodium salt 37 of Compound 14 in rats.

[8] = as above; design: species or system SD rats; conditions: rats
[9] = 15 mg/kg Compound 14 intragastric, individual animals No. 15-18, 15 mg/kg
[10] = male, SD, rat, in vivo, po, 15 mg/kg, 15 mg/kg Compound 14 intragastric, average value
[11] = male, SD, rat, in vivo, po, 15 mg/kg, 15 mg/kg Compound 14 intragastric, individual animals No. 15-18
[12] = male, SD, rat, in vivo, iv, 5 mg/kg, 5 mg/kg Compound 14 intravenous injection, average value
[13] = 5 mg/kg Compound 14 intravenous injection, individual animals No. 19-21, 5 mg/kg

melting point: 150 to 152 °C
MIC [1]: 1 to 2 µg/mL (≈ 2.79 to 5.58 µM)
MIC [2]: 0.5 µg/mL (≈ 1.4 µM)
MIC [3]: 0.5 µg/mL (≈ 1.4 µM)
MIC [4]: 0.5 to 1 µg/mL (≈ 1.4 to 2.79 µM)
MIC [5]: 0.5 to 1 µg/mL (≈ 1.4 to 2.79 µM)
MIC [6]: 1 to 2 µg/mL (≈ 2.79 to 5.58 µM)
SMILES: O=C1O[C@@H](CO)[C@@H]2COc3cc(-c4ccc(C(O)CO)nc4)ccc3N12 (stereo partly drawn) [Compound 4, (3R,3aS)-7-(6-(1,2-dihydroxylethyl)pyridin-3-yl)-3-(hydroxylmethyl)-3a,4-dihydrobenzo[b]oxazolo[3,4-d][1,4]oxazin-1(3H)-one]

melting point: > 198 °C
MIC [1]: 2 to 8 µg/mL (≈ 5.03 to 20.1 µM)
MIC [2]: 8 µg/mL (≈ 20.1 µM)
MIC [3]: 2 to 4 µg/mL (≈ 5.03 to 10.1 µM)
MIC [4]: 2 to 4 µg/mL (≈ 5.03 to 10.1 µM)
MIC [5]: 4 µg/mL (≈ 10.1 µM)
MIC [6]: 16 µg/mL (≈ 40.3 µM)
SMILES: O=C1O[C@@H](CO)[C@@H]2COc3cc(-c4ccc(N5CCC(O)CC5)nc4)ccc3N12 [Compound 11, (3R,3aS)-3-(hydroxylmethyl)-7-(6-(4-hydroxylpiperidin-1-yl)pyridin-3-yl)-3a,4-dihydrobenzo[b]oxazolo[3,4-d][1,4]oxazin-1(3H)-one]

melting point: 199 to 201 °C
MIC [1]: 8 to 16 µg/mL (≈ 23.5 to 47 µM)
MIC [2]: 4 to 8 µg/mL (≈ 11.8 to 23.5 µM)
MIC [3]: 4 µg/mL (≈ 11.8 µM)
MIC [4]: 2 to 4 µg/mL (≈ 5.88 to 11.8 µM)
MIC [5]: 2 to 4 µg/mL (≈ 5.88 to 11.8 µM)
MIC [6]: 2 µg/mL (≈ 5.88 µM)
SMILES: CC(=O)c1ccc(-c2ccc3c(c2)OC[C@H]2[C@H](CO)OC(=O)N32)cn1 [Compound 13, (3R,3aS)-7-(6-acetylpyridin-3-yl)-3-(hydroxylmethyl)-3a,4-dihydrobenzo[b]oxazolo[3,4-d][1,4]oxazin-1(3H)-one]

SMILES: CN1CC(c2ccc(-c3ccc4c(c3)OC[C@H]3[C@H](CO)OC(=O)N43)cn2)OC1=O (stereo partly drawn) [Compound 14, (3R,3aS)-3-(hydroxylmethyl)-7-(6-(3-methyl-2-oxazolidin-5-yl)pyridin-3-yl)-3a,4-dihydrobenzo[b]oxazolo[3,4-d][1,4]oxazin-1(3H)-one]
AUC0-t [7, 9]: 2174 ng·h/mL and 2095 ng·h/mL and 2374 ng·h/mL
AUC0-∞ [7, 9]: 2290 ng·h/mL and 2165 ng·h/mL and 2440 ng·h/mL
Cmax [7, 9]: 474 ng/mL and 766 ng/mL and 878 ng/mL and 1117 ng/mL
MRT [7, 9]: 2.93 h and 2.03 h and 2.23 h
Tmax [7, 9]: 2.00 h and 0.50 h
t1/2 [7, 9]: 1.64 h and 2.34 h and 1.45 h
clearance ([7]; male, SD, rat, in vivo, 5 mg/kg Compound 14 intravenous injection, average value, read-out: CLz (plasma clearance) (converted)): 53.7 mL/min/kg
bioavailability ([7]; male, SD, rat, in vivo, 15 mg/kg, 15 mg/kg Compound 14 intragastric vs 5 mg/kg intravenous, dose corrected, read-out: F (absolute bioavailability)): 44.8%
Vd ([7]; male, SD, rat, in vivo, iv, 5 mg/kg, 5 mg/kg Compound 14 intravenous injection, average value, read-out: Vss (distribution volume)): 2.39 ± 0.42 L/kg
half-life [7, 10]: 1.93 ± 0.45 h
AUC(0-inf) [7, 11]: 1770 ng·h/mL
MIC [1]: 1 µg/mL (≈ 2.52 µM)
MIC [2]: 0.25 to 1 µg/mL (≈ 0.629 to 2.52 µM)
MIC [3]: 0.25 to 0.5 µg/mL (≈ 0.629 to 1.26 µM)
MIC [4]: 0.5 to 1 µg/mL (≈ 1.26 to 2.52 µM)
MIC [5]: 0.5 to 1 µg/mL (≈ 1.26 to 2.52 µM)
MIC [6]: 1 to 2 µg/mL (≈ 2.52 to 5.03 µM)
AUC(0-inf) [8, 12]: 1560 ng·h/mL
half-life [8, 12]: 2.51 ± 0.92 h
AUC0-t ([8]; male, SD, rat, in vivo, iv, 5 mg/kg, 5 mg/kg Compound 14 intravenous injection, average value, read-out: AUC0-t): 1540 ± 54 ng·h/mL
MRT ([8]; male, SD, rat, in vivo, iv, 5 mg/kg, 5 mg/kg Compound 14 intravenous injection, average value, read-out: MRT): 0.74 h
AUC(0-inf) ([8]; male, SD, rat, in vivo, iv, 5 mg/kg, 5 mg/kg Compound 14 intravenous injection, individual animals No. 19-21): 1600 ng·h/mL
AUC0-t ([8]; male, SD, rat, in vivo, iv, 5 mg/kg, 5 mg/kg Compound 14 intravenous injection, individual animals No. 19-21, read-out: AUC0-t): 1600 ng·h/mL
MRT ([8]; male, SD, rat, in vivo, iv, 5 mg/kg, 5 mg/kg Compound 14 intravenous injection, individual animals No. 19-21, read-out: MRT): 0.61 h
Vd ([8]; male, SD, rat, in vivo, iv, 5 mg/kg, 5 mg/kg Compound 14 intravenous injection, individual animals No. 19-21, read-out: Vss): 1.9 L/kg
AUC(0-inf) [8, 10]: 2170 ng·h/mL
Cmax [8, 10]: 809 ± 267 ng/mL
Tmax [8, 10]: 1 ± 0.71 h
AUC0-t ([8]; male, SD, rat, in vivo, po, 15 mg/kg, 15 mg/kg Compound 14 intragastric, average value, read-out: AUC0-t): 2070 ± 319 ng·h/mL
MRT ([8]; male, SD, rat, in vivo, po, 15 mg/kg, 15 mg/kg Compound 14 intragastric, average value, read-out: MRT): 2.64 h
half-life [8, 11]: 2.29 h
AUC0-t ([8]; male, SD, rat, in vivo, po, 15 mg/kg, 15 mg/kg Compound 14 intragastric, individual animals No. 15-18, read-out: AUC0-t): 1620 ng·h/mL
MRT ([8]; male, SD, rat, in vivo, po, 15 mg/kg, 15 mg/kg Compound 14 intragastric, individual animals No. 15-18, read-out: MRT): 3.36 h
AUC0-t [8, 13]: 1490 ng·h/mL and 1526 ng·h/mL
AUC0-∞ [8, 13]: 1510 ng·h/mL and 1555 ng·h/mL
CLz [8, 13]: 52 mL/min/kg and 55.2 mL/min/kg and 53.7 mL/min/kg
MRT [8, 13]: 0.79 h and 0.82 h
Vss [8, 13]: 2.62 L/kg and 2.64 L/kg
t1/2 [8, 13]: 1.62 h and 2.46 h and 3.45 h
F (absolute bioavailability) ([8]; 15 mg/kg Compound 14 intragastric vs 5 mg/kg intravenous, dose corrected): 44%
